Read-outs that look alike come from different tables or passages of the source.
Experiments:
[1] = test system: vinblastine-selected Caco-2 cells; experiment: Transport studies across Caco-2 monolayers (P app, efflux ratio); assay type: in vitro ADME
Method: Medium was replaced every 2-3 days. […] The vinblastine-selected Caco-2 cells were cultivated in the presence of 10 nM vinblastine to induce P-glycoprotein (P-gp) expression. […] Prior to the transport study, cytotoxicity of NGR1, GRg1, GRe, and Borneol toward Caco-2 cells was determined using MTT assays.
In transport studies, vinblastine-selected Caco-2 cells were seeded on polycarbonate filter of transwells for 18–21 days before starting transport study, and the monolayers with the transepithelial electrical resistance (TEER) values greater than 300 Ωcm^2 were used. Caco-2 monolayers were rinsed twice with Hanks' balanced salt solution (HBSS) and preincubated in HBSS at 37°C for 30 min before starting experiments. To start the experiments, 500 μM of NGR1, GRg1, and GRe in final concentrations were added to the donor side with or without 200 μM Borneol and then incubated at 37°C. […] After each sampling, 0.1 mL of HBSS was added to the receiver chamber to maintain a constant volume. All the experiments were performed five times in duplicate. The collected samples were stored at −20°C until HPLC analysis. During the above transport studies, the TEER values were also monitored before and at the end of each experiment. Apparent permeability coefficients (P app) were then calculated according to the following equation: (1) Papp=(dC/dt×V)/(A×C0), where dC/dt is the rate of the test compound appearing in the receiver chamber, V is the volume of the solution in the receiver chamber, A is the cell monolayer surface area, and C 0 is the initial concentration of the test compound added in the donor chamber.
The efflux ratio (Er) was calculated using the following equation: (2) Er=Papp(basolateral-apical)/Papp(apical-basolateral).

[2] = Tissue distribution study in rabbits after oral Panax notoginseng extract with or without Borneol; assay type: in vivo, New Zealand rabbits; conditions: New Zealand, rabbit; for Kp at 1 h: oral, Borneol combined with Panax notoginseng; for concentration at 0.5 h / concentration at 1 h / concentration at 3 h: po; for concentration at 3 h: 3 mL·kg^−1, 3.0 h
Method: Frozen plasma and tissue samples were thawed in a water bath at 37°C and were then vortexed followed by centrifuging at 5000 r·min^−1 for 5 min. An aliquot of 1.0 mL of the supernatant from each sample was loaded onto C18 Bond Elute Solid phase extraction (SPE) cartridges (1000 mg, 1 cc reservoir, Varian, Harbor City, CA, USA) pretreated with 2.0 mL hexane, isopropanol, methanol, and water, sequentially. The SPE cartridges were then washed with 1.0 mL water, 20% methanol/water solution, 40% methanol/water solution, and 60% methanol/water solution, sequentially. Finally, analytes were eluted twice with 1.0 mL of 70% methanol/water solution. The eluant was evaporated to dryness under nitrogen. The residues were then reconstituted in 1.0 mL mobile phase. An aliquot of 10 μL was injected into the LC-MS system.
One group of rabbits (n = 18) was orally administered a dose of 3.0 mL·kg^−1 Panax notoginseng extract, while another group of rabbits (n = 18) was orally given 3.0 mL·kg^−1 Panax notoginseng extract combined with Borneol. At 0.5, 1, and 3 h after administration, blood samples were collected from the central ear artery of six rabbits from each group, and the heart, liver, lung, kidney, and brain were immediately removed after animals were sacrificed by decapitation. An accurately weighed amount of tissue (1 g) was collected to be rinsed, dried, minced, and homogenized (400 r·min^−1) in normal saline (1.5 mL). All of the samples were stored at −70°C and were processed prior to analysis with the proposed method as described in Section 2.6.

## CC(C)=CCC[C@](C)(O[C@@H]1O[C@H](CO)[C@@H](O)[C@H](O)[C@H]1O)[C@H]1CC[C@]2(C)[C@@H]1[C@H](O)C[C@@H]1[C@@]3(C)CC[C@H](O)C(C)(C)[C@@H]3[C@@H](O[C@@H]3O[C@H](CO)[C@@H](O)[C@H](O)[C@H]3O[C@@H]3O[C@@H](C)[C@H](O)[C@@H](O)[C@H]3O)C[C@]12C [GRe, ginsenoside Re]
[1]; 200 μM Borneol, Caco-2
  increase of P app (apical-to-basolateral) by Borneol: 2.3 fold
  increase of P app (basolateral-to-apical) by Borneol: 2.4 fold
[1]; Caco-2 monolayers, without Borneol
  P app values: less than 10^−6 cm/s
[1]; concluded from efflux ratio in vinblastine-selected Caco-2 cells
  substrate of P-gp: seemed not to be substrates of P-gp
[2]; brain, peak levels at 1.0 h, read-out: level in brain, fold higher than the plasma concentrations
  Kp at 1 h: 1.14
[2]; brain, 3 mL·kg^−1, 0.5 h, oral Panax notoginseng with Borneol, read-out: Concentration in brain
  concentration at 0.5 h: 1800 ± 420 ng/g
[2]; brain, 3 mL·kg^−1, 0.5 h, oral Panax notoginseng, read-out: Concentration in brain
  concentration at 0.5 h: 1050 ± 420 ng/g
[2]; brain, 3 mL·kg^−1, 1.0 h, oral Panax notoginseng, read-out: Concentration in brain
  concentration at 1 h: 1210 ± 280 ng/g
[2]; brain, oral Panax notoginseng with Borneol, read-out: Concentration in brain
  concentration at 3 h: 1650 ± 230 ng/g
[2]; brain, oral Panax notoginseng, read-out: Concentration in brain
  concentration at 3 h: 630 ± 120 ng/g
[2]; brain, 1.0 h, oral Panax notoginseng with Borneol, read-out: Concentration in brain
  concentration at 1 h: 2760 ± 630 ng/g
[2]; heart, peak levels at 1.0 h, read-out: level in heart, fold higher than the plasma concentrations
  Kp at 1 h: 1.35
[2]; heart, 3 mL·kg^−1, 0.5 h, oral Panax notoginseng with Borneol, read-out: Concentration in heart
  concentration at 0.5 h: 2810 ± 740 ng/g
[2]; heart, 3 mL·kg^−1, 0.5 h, oral Panax notoginseng, read-out: Concentration in heart
  concentration at 0.5 h: 1650 ± 530 ng/g
[2]; heart, 3 mL·kg^−1, 1.0 h, oral Panax notoginseng, read-out: Concentration in heart
  concentration at 1 h: 2110 ± 280 ng/g
[2]; heart, oral Panax notoginseng with Borneol, read-out: Concentration in heart
  concentration at 3 h: 2240 ± 540 ng/g
[2]; heart, oral Panax notoginseng, read-out: Concentration in heart
  concentration at 3 h: 1140 ± 130 ng/g
[2]; heart, 1.0 h, oral Panax notoginseng with Borneol, read-out: Concentration in heart
  concentration at 1 h: 3280 ± 430 ng/g
[2]; kidney, at 1.0 h, read-out: level in kidney, fold higher than the plasma concentrations
  Kp at 1 h: 1
[2]; kidney, 3 mL·kg^−1, 0.5 h, oral Panax notoginseng with Borneol, read-out: Concentration in kidney
  concentration at 0.5 h: 2840 ± 530 ng/g
[2]; kidney, 3 mL·kg^−1, 0.5 h, oral Panax notoginseng, read-out: Concentration in kidney
  concentration at 0.5 h: 1630 ± 180 ng/g
[2]; kidney, 3 mL·kg^−1, 1.0 h, oral Panax notoginseng, read-out: Concentration in kidney
  concentration at 1 h: 1530 ± 220 ng/g
[2]; kidney, oral Panax notoginseng with Borneol, read-out: Concentration in kidney
  concentration at 3 h: 1610 ± 450 ng/g
[2]; kidney, oral Panax notoginseng, read-out: Concentration in kidney
  concentration at 3 h: 1150 ± 130 ng/g
[2]; kidney, 1.0 h, oral Panax notoginseng with Borneol, read-out: Concentration in kidney
  concentration at 1 h: 2430 ± 290 ng/g
[2]; liver, peak levels at 1.0 h, read-out: level in liver, fold higher than the plasma concentrations
  Kp at 1 h: 1.97
[2]; liver, 3 mL·kg^−1, 0.5 h, oral Panax notoginseng with Borneol, read-out: Concentration in liver
  concentration at 0.5 h: 3600 ± 460 ng/g
[2]; liver, 3 mL·kg^−1, 0.5 h, oral Panax notoginseng, read-out: Concentration in liver
  concentration at 0.5 h: 990 ± 330 ng/g
[2]; liver, 3 mL·kg^−1, 1.0 h, oral Panax notoginseng, read-out: Concentration in liver
  concentration at 1 h: 1300 ± 250 ng/g
[2]; liver, oral Panax notoginseng with Borneol, read-out: Concentration in liver
  concentration at 3 h: 2630 ± 810 ng/g
[2]; liver, oral Panax notoginseng, read-out: Concentration in liver
  concentration at 3 h: 690 ± 110 ng/g
[2]; liver, 1.0 h, oral Panax notoginseng with Borneol, read-out: Concentration in liver
  concentration at 1 h: 4770 ± 420 ng/g
[2]; lung, peak levels at 1.0 h, read-out: level in lung, fold higher than the plasma concentrations
  Kp at 1 h: 1.24
[2]; lung, 3 mL·kg^−1, 0.5 h, oral Panax notoginseng with Borneol, read-out: Concentration in lung
  concentration at 0.5 h: 2480 ± 690 ng/g
[2]; lung, 3 mL·kg^−1, 0.5 h, oral Panax notoginseng, read-out: Concentration in lung
  concentration at 0.5 h: 700 ± 410 ng/g
[2]; lung, 3 mL·kg^−1, 1.0 h, oral Panax notoginseng, read-out: Concentration in lung
  concentration at 1 h: 920 ± 130 ng/g
[2]; lung, oral Panax notoginseng with Borneol, read-out: Concentration in lung
  concentration at 3 h: 1530 ± 450 ng/g
[2]; lung, oral Panax notoginseng, read-out: Concentration in lung
  concentration at 3 h: 310 ± 440 ng/g
[2]; lung, 1.0 h, oral Panax notoginseng with Borneol, read-out: Concentration in lung
  concentration at 1 h: 2990 ± 170 ng/g
[2]; plasma, 3 mL·kg^−1, 0.5 h, oral Panax notoginseng, read-out: Concentration in plasma
  concentration at 0.5 h: 1780 ± 110 ng/mL
[2]; plasma, 3 mL·kg^−1, 1.0 h, oral Panax notoginseng, read-out: Concentration in plasma
  concentration at 1 h: 1900 ± 150 ng/mL
[2]; plasma, oral Panax notoginseng with Borneol, read-out: Concentration in plasma
  concentration at 3 h: 870 ± 40 ng/mL
[2]; plasma, oral Panax notoginseng, read-out: Concentration in plasma
  concentration at 3 h: 790 ± 20 ng/mL
[2]; plasma, 0.5 h, oral Panax notoginseng with Borneol, read-out: Concentration in plasma
  concentration at 0.5 h: 2680 ± 130 ng/mL
[2]; plasma, 1.0 h, oral Panax notoginseng with Borneol, read-out: Concentration in plasma
  concentration at 1 h: 2420 ± 80 ng/mL
